Numbers after ± are expanded uncertainties.
How the values were obtained:
[1] = xn = mol fraction of the nth substance listed; details: 101 kPa, Liquid; for mass density: Vibrating tube method
[2] = 101 kPa, Liquid; for mass density: Vibrating tube method

CCC(C)Cl (configuration not stated) [2-chlorobutane] + C1CCOCC1
[1]
Details | kinematic viscosity, 298.15 K [m2/s] | kinematic viscosity, 313.15 K [m2/s] | mass density, 298.15 K [kg/m3] | mass density, 313.15 K [kg/m3]
x2 = 0 | 4.54e-07 ± 6.8e-09 | 3.96e-07 ± 6.2e-09 | 867.37 ± 2 | 850.13 ± 2
x2 = 0.0525 | – | – | 868.05 ± 2 | –
x2 = 0.0605 | 4.66e-07 ± 7e-09 | 4.09e-07 ± 6.3e-09 | – | 851.11 ± 2
x2 = 0.1035 | – | – | 869.06 ± 2 | –
x2 = 0.1166 | 4.8e-07 ± 7.2e-09 | 4.22e-07 ± 6.5e-09 | – | 852.02 ± 2
x2 = 0.1947 | – | – | 870.26 ± 2 | –
x2 = 0.2131 | 5.08e-07 ± 7.5e-09 | 4.45e-07 ± 6.7e-09 | – | 853.59 ± 2
x2 = 0.3042 | – | – | 871.8 ± 2 | –
x2 = 0.3174 | 5.42e-07 ± 7.9e-09 | 4.72e-07 ± 7.1e-09 | – | 855.4 ± 2
x2 = 0.4088 | 5.75e-07 ± 8.3e-09 | 4.97e-07 ± 7.4e-09 | – | 857 ± 2
x2 = 0.4091 | – | – | 872.95 ± 2 | –
x2 = 0.4994 | 6.11e-07 ± 8.7e-09 | 5.25e-07 ± 7.7e-09 | – | 858.35 ± 2
x2 = 0.5025 | – | – | 874.28 ± 2 | –
x2 = 0.5947 | – | – | 875.42 ± 2 | –
x2 = 0.6122 | 6.62e-07 ± 9.3e-09 | 5.66e-07 ± 8.2e-09 | – | 859.58 ± 2
x2 = 0.7108 | 7.14e-07 ± 9.9e-09 | 6.06e-07 ± 8.6e-09 | – | 861.03 ± 2
x2 = 0.7116 | – | – | 876.72 ± 2 | –
x2 = 0.8059 | 7.69e-07 ± 1.1e-08 | 6.49e-07 ± 9.2e-09 | – | 862.1 ± 2
x2 = 0.809 | – | – | 877.46 ± 2 | –
x2 = 0.8917 | – | – | 878.36 ± 2 | –
x2 = 0.9023 | 8.34e-07 ± 1.1e-08 | 6.97e-07 ± 9.7e-09 | – | 862.9 ± 2
x2 = 0.9549 | 8.73e-07 ± 1.2e-08 | 7.28e-07 ± 1e-08 | – | 863.45 ± 2
x2 = 0.9599 | – | – | 878.55 ± 2 | –

CCC(C)Cl (configuration not stated) [2-chlorobutane]
[2]
Details | kinematic viscosity [m2/s] | mass density [kg/m3]
298.15 K | 4.54e-07 ± 6.8e-09 | 867.37 ± 2
313.15 K | 3.96e-07 ± 6.2e-09 | 850.13 ± 2

CCCCCl [1-chlorobutane] + C1CCOCC1
[1]
Details | kinematic viscosity [m2/s] | mass density [kg/m3]
298.15 K, x2 = 0 | 4.78e-07 ± 7.1e-09 | 880.69 ± 2
298.15 K, x2 = 0.0243 | 4.84e-07 ± 7.2e-09 | –
298.15 K, x2 = 0.0521 | – | 880.67 ± 2
298.15 K, x2 = 0.1006 | – | 880.66 ± 2
298.15 K, x2 = 0.1039 | 5.02e-07 ± 7.4e-09 | –
298.15 K, x2 = 0.1949 | – | 880.62 ± 2
298.15 K, x2 = 0.2058 | 5.29e-07 ± 7.7e-09 | –
298.15 K, x2 = 0.2549 | – | 880.59 ± 2
298.15 K, x2 = 0.307 | 5.59e-07 ± 8.1e-09 | –
298.15 K, x2 = 0.3774 | – | 880.48 ± 2
298.15 K, x2 = 0.3984 | 5.89e-07 ± 8.4e-09 | –
298.15 K, x2 = 0.5035 | – | 880.26 ± 2
298.15 K, x2 = 0.5077 | 6.3e-07 ± 8.9e-09 | –
298.15 K, x2 = 0.5948 | – | 880.06 ± 2
298.15 K, x2 = 0.6038 | 6.69e-07 ± 9.4e-09 | –
298.15 K, x2 = 0.661 | – | 879.87 ± 2
298.15 K, x2 = 0.7064 | 7.18e-07 ± 1e-08 | –
298.15 K, x2 = 0.7893 | – | 879.49 ± 2
298.15 K, x2 = 0.7994 | 7.68e-07 ± 1.1e-08 | –
298.15 K, x2 = 0.9058 | 8.37e-07 ± 1.1e-08 | –
298.15 K, x2 = 0.9203 | – | 879.07 ± 2
298.15 K, x2 = 0.9498 | 8.7e-07 ± 1.2e-08 | –
298.15 K, x2 = 0.9666 | – | 878.91 ± 2
313.15 K, x2 = 0 | 4.21e-07 ± 6.5e-09 | 863.82 ± 2
313.15 K, x2 = 0.0243 | 4.28e-07 ± 6.5e-09 | –
313.15 K, x2 = 0.0348 | – | 863.98 ± 2
313.15 K, x2 = 0.0899 | – | 864.19 ± 2
313.15 K, x2 = 0.1039 | 4.42e-07 ± 6.7e-09 | –
313.15 K, x2 = 0.1717 | – | 864.39 ± 2
313.15 K, x2 = 0.2058 | 4.63e-07 ± 7e-09 | –
313.15 K, x2 = 0.2933 | – | 864.54 ± 2
313.15 K, x2 = 0.307 | 4.86e-07 ± 7.2e-09 | –
313.15 K, x2 = 0.3984 | 5.09e-07 ± 7.5e-09 | –
313.15 K, x2 = 0.413 | – | 864.6 ± 2
313.15 K, x2 = 0.4926 | – | 864.61 ± 2
313.15 K, x2 = 0.5077 | 5.4e-07 ± 7.9e-09 | –
313.15 K, x2 = 0.6026 | – | 864.59 ± 2
313.15 K, x2 = 0.6038 | 5.72e-07 ± 8.2e-09 | –
313.15 K, x2 = 0.7064 | 6.1e-07 ± 8.7e-09 | –
313.15 K, x2 = 0.7085 | – | 864.52 ± 2
313.15 K, x2 = 0.7994 | 6.49e-07 ± 9.2e-09 | –
313.15 K, x2 = 0.8006 | – | 864.45 ± 2
313.15 K, x2 = 0.899 | – | 864.22 ± 2
313.15 K, x2 = 0.9058 | 7.01e-07 ± 9.8e-09 | –
313.15 K, x2 = 0.9498 | 7.25e-07 ± 1e-08 | –
313.15 K, x2 = 0.9724 | – | 863.88 ± 2

CCCCCl [1-chlorobutane]
[2]
Details | kinematic viscosity [m2/s] | mass density [kg/m3]
298.15 K | 4.78e-07 ± 7.1e-09 | 880.69 ± 2
313.15 K | 4.21e-07 ± 6.5e-09 | 863.82 ± 2

C1CCOCC1 [tetrahydropyran]
[2]
Details | kinematic viscosity [m2/s] | mass density [kg/m3]
298.15 K | 9.1e-07 ± 1.2e-08 | 878.81 ± 2
313.15 K | 7.57e-07 ± 1e-08 | 863.67 ± 2

C1CCOCC1 [tetrahydropyran] + CCC(C)Cl
[1], x1 = 1
Details | kinematic viscosity [m2/s] | mass density [kg/m3]
298.15 K | 9.1e-07 ± 1.2e-08 | 878.81 ± 2
313.15 K | 7.57e-07 ± 1e-08 | 863.67 ± 2

Reference: the NIST ThermoML archive (doi:10.1007/s10765-006-0100-z)
